These results are taken from ChEMBL document CHEMBL1201862, “PubChem BioAssay data set” (2004).

Test systems include ACHN; EKVX; U-251; Malme-3M; SR; OVCAR-4; M14; HL-60; COLO 205; SF-295; NCI-H226; RPMI-8226; UO-31; RXF 393; NCI-H522; HCC 2998; OVCAR-5; MOLT-4; SK-MEL-2.
Holding throughout (assay): growth of human tumour cells (NCI), 48 h

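Compound exposure: 48 hours, 5 concentrations, 96-well plates. At the GI50, growth is halved.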 Calls of active or inactive are those of the source. Rule as the data show it: active = GI50 up to about 1.1 µM and inactive = higher.

For `CCOC(=O)C(NC(=O)CC)(Nc1ccc(S(=O)(=O)Nc2ncccn2)cc1)C(F)(F)F` (configuration not stated), the GI50 with ACHN, in the assay with EKVX, with U-251, in the assay on Malme-3M, in the assay on SR and in the assay with OVCAR-4 was > 100 µM (inactive) throughout. The GI50 in the assay with M14, in the assay on HL-60, with COLO 205, in the assay with SF-295, in the assay on NCI-H226 and in the assay with RPMI-8226 was > 100 µM (inactive) in each case. For the same compound, the GI50 in the assay on UO-31, in the assay on RXF 393, with NCI-H522, in the assay with HCC 2998, in the assay on OVCAR-5 and with MOLT-4 was > 100 µM (inactive) each time.

Regarding `Cc1ccc(C2=Nn3c(nc4sc5c(c4c3=O)CCCC5)SC2)cc1`, the GI50 with ACHN, in the assay on EKVX, with U-251, with Malme-3M, with SR and in the assay on OVCAR-4 was > 100 µM (inactive) in each case. In addition, the GI50 in the assay with HL-60, in the assay with COLO 205, in the assay with SF-295, with NCI-H226, in the assay on RPMI-8226 and in the assay on UO-31 was > 100 µM (inactive) each time. In addition, the GI50 in the assay on RXF 393, in the assay with NCI-H522, with HCC 2998, with OVCAR-5 and in the assay with MOLT-4 was > 100 µM (inactive) in each case.

In the case of `S=c1nc(Nc2ccc(Cl)cc2)c2c3c(sc2[nH]1)CCCC3`, the GI50 is 74.5 µM (inactive) in the assay on ACHN; > 100 µM (inactive) in the assay with EKVX; > 100 µM (inactive) in the assay with U-251; > 100 µM (inactive) in the assay on Malme-3M; > 100 µM (inactive) in the assay with SR; > 100 µM (inactive) with SK-MEL-2. The GI50 in the assay with OVCAR-4 is > 100 µM (inactive); with HL-60, 54 µM (inactive); in the assay with COLO 205 it was > 100 µM (inactive); in the assay with SF-295, > 100 µM (inactive); with NCI-H226 it was > 100 µM (inactive); in the assay on RPMI-8226, 24.4 µM (inactive). Besides, the GI50 in the assay on UO-31 is > 100 µM (inactive); in the assay with RXF 393, > 100 µM (inactive); in the assay with NCI-H522 it was 37 µM (inactive); with HCC 2998, 43.4 µM (inactive); with OVCAR-5 it was > 100 µM (inactive); with MOLT-4, 64.7 µM (inactive).

Turning to `Cc1ncc(-c2nnnn2-c2ccccc2)c(C(=O)O)n1`, the GI50 is > 100 µM (inactive) in the assay with ACHN; > 100 µM (inactive) in the assay with EKVX; > 100 µM (inactive) in the assay with U-251; > 100 µM (inactive) with Malme-3M; > 100 µM (inactive) in the assay on SR; 33.3 µM (inactive) with SK-MEL-2. Moreover, the GI50 in the assay on M14, with HL-60, in the assay on COLO 205, with SF-295, in the assay with NCI-H226 and in the assay with RPMI-8226 was > 100 µM (inactive) throughout. Also, the GI50 in the assay with UO-31, in the assay on RXF 393, in the assay with NCI-H522, with HCC 2998, with OVCAR-5 and in the assay with MOLT-4 was > 100 µM (inactive) throughout.

Take `COC(=O)C#Cc1ccc([N+](=O)[O-])cc1`: the GI50 is 1.41 µM (inactive) with ACHN; 1.76 µM (inactive) with EKVX; 1.88 µM (inactive) with U-251; 2.27 µM (inactive) with Malme-3M; 0.325 µM (active) with SR; 3.69 µM (inactive) in the assay with SK-MEL-2. Besides, the GI50 in the assay with OVCAR-4 is 1.7 µM (inactive); in the assay with M14, 2.05 µM (inactive); in the assay with HL-60, 1.77 µM (inactive); in the assay with COLO 205, 1.83 µM (inactive); in the assay on SF-295, 4.24 µM (inactive); in the assay with NCI-H226, 2.47 µM (inactive). Also, the GI50 is 0.665 µM (active) in the assay on RPMI-8226; 1.42 µM (inactive) in the assay on UO-31; 1.9 µM (inactive) in the assay on RXF 393; 1.75 µM (inactive) with NCI-H522; 1.76 µM (inactive) in the assay with HCC 2998; 2.16 µM (inactive) with OVCAR-5. Moreover, the GI50 with MOLT-4 was 0.659 µM (active).

`Cc1nc(NC(C)(CO)CO)nc(N/N=C/c2ccc(Cl)cc2)c1C(=O)Nc1ccc(Cl)cc1`: the GI50 was 47.9 µM (inactive) with ACHN; > 100 µM (inactive) in the assay on EKVX; 74.8 µM (inactive) in the assay on U-251; > 100 µM (inactive) in the assay on Malme-3M; > 10 µM (inactive) in the assay on SR; > 100 µM (inactive) in the assay on SK-MEL-2. Further, the GI50 in the assay with OVCAR-4, with M14, in the assay with HL-60, with COLO 205, with SF-295 and in the assay on NCI-H226 was > 100 µM (inactive) throughout. Further, the GI50 with RPMI-8226 was > 100 µM (inactive); in the assay with UO-31, > 100 µM (inactive); in the assay on RXF 393, 28.4 µM (inactive); in the assay on NCI-H522, 48.1 µM (inactive); in the assay with HCC 2998 it was > 100 µM (inactive); with OVCAR-5, > 100 µM (inactive). Also, the GI50 with MOLT-4 is 65.5 µM (inactive).

As for `O=S1(=O)c2cnccc2N=C(NCc2cccc3ccccc23)N1c1ccccc1`, the GI50 in the assay on ACHN was 35.9 µM (inactive); in the assay on EKVX it was 36.4 µM (inactive); in the assay with U-251, 43.8 µM (inactive); in the assay with Malme-3M it was > 100 µM (inactive); with SR, > 100 µM (inactive); with OVCAR-4, > 91.2 µM (inactive). The GI50 in the assay on M14 is > 83.9 µM (inactive); with HL-60, 1.87 µM (inactive); in the assay with COLO 205, > 85.7 µM (inactive); in the assay on SF-295 it was 62.8 µM (inactive); with NCI-H226, > 100 µM (inactive); in the assay on RPMI-8226, 13.6 µM (inactive). Besides, the GI50 with UO-31 is > 56.5 µM (inactive); in the assay with RXF 393, > 43.9 µM (inactive); in the assay on NCI-H522 it was 30.6 µM (inactive); in the assay on HCC 2998, 38.4 µM (inactive); with OVCAR-5, > 100 µM (inactive); with MOLT-4 it was 12.2 µM (inactive).

Regarding `N=C(N)SCc1cccc(-c2nc3ccccc3c(=O)o2)c1`, the GI50 in the assay with ACHN was > 100 µM (inactive); in the assay on EKVX, > 100 µM (inactive); in the assay with U-251, > 100 µM (inactive); with Malme-3M, > 100 µM (inactive); in the assay with SR it was 95.5 µM (inactive); in the assay on SK-MEL-2 it was > 100 µM (inactive). For the same compound, the GI50 in the assay with OVCAR-4, in the assay on M14, in the assay on COLO 205, with SF-295, with NCI-H226 and in the assay with RPMI-8226 was > 100 µM (inactive) in each case. The GI50 in the assay with UO-31, in the assay with RXF 393, in the assay on NCI-H522, in the assay with HCC 2998 and with OVCAR-5 was > 100 µM (inactive) throughout.

On to `O=c1cc(NNc2ccccc2F)[nH]c(=O)[nH]1`, for which the GI50 in the assay with ACHN is 18.3 µM (inactive); with U-251 it was 17.7 µM (inactive); with Malme-3M it was 18.8 µM (inactive); in the assay on SR, 1.35 µM (inactive); in the assay on SK-MEL-2, 16.7 µM (inactive); in the assay with OVCAR-4, 17.7 µM (inactive). Also, the GI50 in the assay on M14 is 17.7 µM (inactive); in the assay with HL-60, 11.9 µM (inactive); with COLO 205, 19.2 µM (inactive); in the assay on NCI-H226 it was 21.2 µM (inactive); in the assay on RPMI-8226, 17.8 µM (inactive); in the assay with UO-31, 12.2 µM (inactive). The GI50 with RXF 393 was 1.26 µM (inactive); in the assay with NCI-H522, 16.2 µM (inactive); in the assay with HCC 2998 it was 17.9 µM (inactive); with OVCAR-5 it was 19.5 µM (inactive); in the assay on MOLT-4, 23.4 µM (inactive).

Turning to `CCCCCc1c(Cl)nc(Cl)nc1Cl`, the GI50 in the assay on ACHN is 21 µM (inactive); with EKVX, 22.5 µM (inactive); in the assay on U-251, 9.27 µM (inactive); in the assay with Malme-3M it was 2.59 µM (inactive); in the assay with SR, 0.157 µM (active); in the assay with OVCAR-4, 16.1 µM (inactive). Besides, the GI50 with M14 is 1.56 µM (inactive); in the assay on HL-60, 2.42 µM (inactive); in the assay on COLO 205, 7.85 µM (inactive); in the assay on SF-295, 25.1 µM (inactive); in the assay with NCI-H226 it was 2 µM (inactive); in the assay with RPMI-8226, 3.03 µM (inactive). The GI50 with UO-31 is 18.5 µM (inactive); with RXF 393 it was 8.41 µM (inactive); with NCI-H522, 0.625 µM (active); in the assay on HCC 2998 it was 11.1 µM (inactive); in the assay with OVCAR-5 it was 12.7 µM (inactive); with MOLT-4 it was 0.303 µM (active).

In the case of `O=C1C2=Nc3ccccc3C(O)N2c2ccccc21` (configuration not stated), the GI50 was 5.62 µM (inactive) with ACHN; 57.9 µM (inactive) in the assay with EKVX; > 52.5 µM (inactive) with U-251; 14.3 µM (inactive) with Malme-3M; 86.5 µM (inactive) in the assay on SR; > 100 µM (inactive) in the assay on OVCAR-4. Moreover, the GI50 with M14 was > 78.2 µM (inactive); in the assay on HL-60, 2.37 µM (inactive); in the assay on COLO 205, 39.2 µM (inactive); with SF-295 it was 35.9 µM (inactive); with NCI-H226 it was 27.8 µM (inactive); with RPMI-8226, 53.8 µM (inactive). For the same compound, the GI50 is 46.8 µM (inactive) in the assay on UO-31; > 10 µM (inactive) with RXF 393; 8.91 µM (inactive) in the assay on NCI-H522; 27.2 µM (inactive) with HCC 2998; 81.1 µM (inactive) with OVCAR-5; > 87.5 µM (inactive) in the assay on MOLT-4.
